Source: US20220347171A1, “TREATMENT OF PRURIGO NODULARIS” (TREVI THERAPEUTICS, INC., priority 2016, published 2022)
Where a name gives a salt, the structure may show the parent alone.

Tested on: prurigo nodularis patients
Test: Example 2 trial: ItchyQoL total score
Type: in vivo, human
Conditions: for Mean (SD) decrease in ItchyQoL total score from baseline to Week 10: placebo −5.45 (10.91)
Procedure: This clinical study was a double-blind, placebo-controlled trial in which prurigo nodularis patients were randomized in a 1:1:1 ratio to nalbuphine ER tablets to a target dose of 90 mg twice daily (BID), nalbuphine HCl ER tablets 180 mg BID, or placebo tablets BID. Use of nonsedating rescue antihistamine medications (non-first generation H1-antihistamines [Simons F E. Advances in H1-antihistamines. N Engl J Med. 2004; 351(21):2203-17.]) were allowed in the study but their use was recorded. Cleansing emollients were allowed for hygiene purposes provided there were no active substances (such as menthol or urea) contained in the lotion. A placebo comparator was chosen because there are no approved treatments for prurigo nodularis in the United States or Europe or an established standard of care that could serve as an active control.
Quality of life-related secondary endpoints included change from Day 1 to the Evaluation Period in itching-related quality of life (using the Itchy QoL) and itching-related sleep disruption (using the MOS Sleep Scale-R). The Hospital Anxiety and Depression Score (HADS) used as a general measure of anxiety and depression.
Efficacy analysis of secondary continuous endpoints was performed using a mixed model repeated ANCOVA with the main effects of treatment and site, including the baseline value for each endpoint as the covariate. The model included time (i.e. Visit) as a factor variable and treatment*time (with placebo as the reference category) with an unstructured covariance structure for repeated measures. For other secondary efficacy endpoints, the Time factor corresponded to the scheduled study visits when the assessment was obtained (Visit 3, Visit 4, and Visit 5). Data from all post-baseline visits were used to fit the model.
In the first 2 weeks of treatment, patients were blindly force-titrated to their assigned target dose, with the patients in the active arms reaching a dose of 90 mg BID (NAL 90) and, for those in the high dose group, to 180 mg BID (NAL 180) in the second week. […]

Oc1ccc2c3c1OC1[C@@H](O)CC[C@@]4(O)[C@@H](C2)N(CC2CCC2)CC[C@]314 (stereo partly drawn) [Nalbuphine, 17-(cyclobutylmethyl)-4,5α-epoxymorphinian-3, 6α, 14-triol, hydrochloride]
Mean (SD) decrease in ItchyQoL total score from baseline to Week 10 (90 mg BID): −7.79 (7.83)
ItchyQoL total score, LS mean difference versus placebo (mixed model repeated measures) (180 mg BID, Week 10, p=0.022): −8.75
Mean (SD) decrease in ItchyQoL total score from baseline to Week 10 (180 mg BID): −13.83 (13.45)
